According to patent publication US10047095B2, “sGC stimulators” (IRONWOOD PHARMACEUTICALS, INC., priority 2014, dated 2018):
Values belong to the compound of their own block, whether it stands above or below them.

Tests used:
[1] = target: T1, human recombinant soluble guanylate cyclase enzyme α1β1 (Homo sapiens, UniProt Q02108+Q02153); test: Purified human recombinant sGC α1β1 enzyme assay in the presence of DETA-NONOate (cGMP HTRF); assay type: biochemical; details: 30 uM DETA NONOate; 50% of maximal response of 30 uM Compound Y; read-out: sGC_Enz_HTRF_a1b1 EC50/IC50 Abs (Norm) (nM) Binned
T1 construct: purchased Enzo Life Sciences ALX-201-177
T1 sequence (Q02108 1-690): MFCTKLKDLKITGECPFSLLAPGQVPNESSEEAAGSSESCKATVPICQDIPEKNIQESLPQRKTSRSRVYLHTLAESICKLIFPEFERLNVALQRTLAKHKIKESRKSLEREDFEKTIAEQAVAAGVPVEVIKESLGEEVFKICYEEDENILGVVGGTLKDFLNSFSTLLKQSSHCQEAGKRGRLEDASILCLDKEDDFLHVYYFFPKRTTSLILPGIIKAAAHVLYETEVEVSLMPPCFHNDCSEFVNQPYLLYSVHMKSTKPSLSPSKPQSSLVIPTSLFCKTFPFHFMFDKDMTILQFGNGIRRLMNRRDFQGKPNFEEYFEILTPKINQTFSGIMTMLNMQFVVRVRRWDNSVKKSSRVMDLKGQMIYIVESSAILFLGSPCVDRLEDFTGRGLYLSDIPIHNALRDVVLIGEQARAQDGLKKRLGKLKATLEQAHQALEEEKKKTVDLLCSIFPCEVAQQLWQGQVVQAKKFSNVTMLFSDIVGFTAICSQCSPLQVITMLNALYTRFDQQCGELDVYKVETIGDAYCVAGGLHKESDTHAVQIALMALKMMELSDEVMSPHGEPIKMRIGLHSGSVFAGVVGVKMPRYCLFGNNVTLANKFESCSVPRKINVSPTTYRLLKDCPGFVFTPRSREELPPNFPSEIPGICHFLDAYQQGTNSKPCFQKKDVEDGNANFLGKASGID
T1 sequence (Q02153 1-619): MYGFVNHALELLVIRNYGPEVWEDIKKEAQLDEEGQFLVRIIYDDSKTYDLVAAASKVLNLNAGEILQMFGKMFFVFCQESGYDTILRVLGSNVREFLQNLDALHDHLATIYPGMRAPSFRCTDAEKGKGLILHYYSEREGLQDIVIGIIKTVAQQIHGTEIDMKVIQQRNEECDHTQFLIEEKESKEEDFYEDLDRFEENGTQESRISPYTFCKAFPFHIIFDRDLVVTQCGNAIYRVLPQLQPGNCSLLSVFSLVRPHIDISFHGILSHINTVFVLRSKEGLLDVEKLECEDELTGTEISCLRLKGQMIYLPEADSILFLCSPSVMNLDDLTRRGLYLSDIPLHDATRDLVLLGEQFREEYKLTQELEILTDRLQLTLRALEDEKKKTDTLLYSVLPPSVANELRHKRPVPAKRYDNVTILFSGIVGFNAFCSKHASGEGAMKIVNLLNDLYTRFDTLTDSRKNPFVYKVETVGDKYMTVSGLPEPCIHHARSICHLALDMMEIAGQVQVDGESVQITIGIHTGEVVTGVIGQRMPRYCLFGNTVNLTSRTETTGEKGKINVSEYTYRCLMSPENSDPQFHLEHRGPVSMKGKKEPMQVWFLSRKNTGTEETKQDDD
Experimental: Purified human recombinant soluble guanylate cyclase enzyme α1β1(h sGC) obtained from Enzo Life Sciences (P/N: ALX-201-177) was used to evaluate the activity of test compounds. The assay reactions contained 0.1 M Tris (pH 8.0), 0.5 mg/mL BSA, 2 mM DTT, 4 mM MgCl2, 30 uM DETA NONOate (Enzo Life Science P/N: ALX-430-014), and 12.5 ng/ml human soluble guanylate cyclase enzyme. […] Guanosine 5′-triphosphate (Sigma-Aldrich P/N: G8877) was added to a final concentration of 300 μM and enzyme reactions were incubated (100 μL, 384-well plate format) at 37° C. for 20 minutes. The controls contained 3% DMSO (low control), or 30 uM of Compound Y (high control). After the 20 minute incubation, the reaction was stopped with the addition of 100 μL of ice cold 20% acetic acid.
cGMP concentrations in all samples were determined using the cGMP HTRF (Cisbio P/N: 62GM2PEC) assay per manufacturer's instructions. A cGMP standard curve was fit using a 4-parameter fit (log(inhibitor) vs. response—variable slope) using GraphPad Prism Software v.6. Samples were diluted appropriately to ensure that values fell within the linear range of the standard curve.
Data were fit using a 4-parameter fit (log(agonist) vs. response—variable slope) using GraphPad Prism Software v.6.

[2] = tested on: lambs with acute pulmonary hypertension; details: cited from earlier work; for effect on pulmonary vasodilation induced by iNO: BAY 41-8543 inhaled microparticles, ODQ intravenous; for pulmonary vasodilation / transpulmonary cGMP release / effect on mean arterial pressure / systemic arterial oxygenation: inhaled microparticles; for pulmonary vasodilation / transpulmonary cGMP release: U-46619-induced pulmonary hypertension
[3] = tested on: adult sickle cell disease patients; details: infusions; cited from earlier work
NO-deficient rats = details: cited from earlier work
mdx mouse = details: cited from earlier work
[4] = tested on: sickle cell disease patients; details: cited from earlier work
[5] = tested on: adult patients with sickle cell disease; details: acute VOE, vs placebo; cited from earlier work
obese mice = details: cited from earlier work
sickle mice = details: oral, high doses; cited from earlier work
[6] = tested on: Guinea pig tracheal smooth muscle; test: Electrical field stimulated guinea pig tracheal smooth muscle (ex vivo) bronchodilation model; details: inhibition of EFS-induced baseline contraction; 95% Cl, 0.78-0.94
Experimental: It is possible to assess the bronchodilating effects of sGC stimulators by using the system described below. […]
On each experimental day, a guinea pig is killed by exposure to a rising concentration of CO2 and the trachea removed. […] Tissues are washed with Kreb's buffer and stimulated using the previously determined sub-maximal voltage for 1 hour to establish a stable baseline contraction prior to assessment of compound activity.
A cumulative dose response curve (DRC) to each test substance is then performed and changes in smooth muscle contraction measured. The effect of each test substance in each experiment is expressed as a percentage inhibition of the baseline contraction, normalized to the relevant vehicle controls. […] The data from all three experiments are pooled, the DRC plotted, and the test substance potency and efficacy determined.

EC50 [1]: 1000 to 5000 nM
Compound: COc1cc(-c2ncc(F)c(N3CCn4c(n[nH]c4=O)C3)n2)nn1Cc1ccccc1F [Compound I-2]

Compound: O=c1onc2cnc3ccccc3n12 [ODQ, 1H-[1,2,4]oxadiazolo[4,3-a]quinoxalin-1-one]
effect on pulmonary vasodilation induced by iNO [2]: markedly reduced

EC50 [1]: 1000 to 5000 nM
Compound: COc1cc(-c2ncc(F)c(N3CCc4cn[nH]c4C3)n2)nn1Cc1ccccc1F [Compound I-6]

Compound: O=NO [sodium nitrite]
forearm blood flow [3]: enhanced

EC50 [1]: 1000 to 5000 nM
Compound: CC(=O)c1cc(-c2ncc(F)c(N3CCn4c(n[nH]c4=O)C3)n2)nn1Cc1ccccc1F [Compound I-14]

Compound: Nc1nc(-c2nn(Cc3ccccc3F)c3ncccc23)ncc1C1CC1 [BAY-2272]
bladder dysfunction (NO-deficient rats): protective effects

Compound: Nc1nc(-c2nn(Cc3ccccc3F)c3ncccc23)ncc1C1CC1 [BAY 41-2272]
pulmonary vasodilation [2]: dose dependent pulmonary vasodilation
transpulmonary cGMP release [2]: increased
effect on mean arterial pressure [2]: without significant effect

Compound: Nc1nc(-c2nn(Cc3ccccc3F)c3ncccc23)nc(N)c1N1CCOCC1 [BAY 41-8543]
effect on pulmonary vasodilation induced by iNO [2]: augmented
pulmonary vasodilation [2]: dose dependent pulmonary vasodilation
transpulmonary cGMP release [2]: increased
effect on mean arterial pressure [2]: without significant effect
systemic arterial oxygenation [2]: increased

Compound: CCCc1nn(C)c2c(=O)[nH]c(-c3cc(S(=O)(=O)N4CCN(C)CC4)ccc3OCC)nc12 [sildenafil]
muscle ischemia, injury and fatigue after a brief bout of exercise (mdx mouse): alleviate muscle ischemia
serious side effects (VOE, headache, visual disturbance) ([4]; Walk-PHaSST multicenter trial, stopped prematurely): higher frequency of serious side effects
PAP and exercise capacity ([4]; sickle cell disease patients with severe PHT): improvements

EC50 [1]: 1000 to 5000 nM
Compound: CC(=O)c1cc(-c2ncc(F)c(N3CCc4[nH][nH]c(=O)c4C3)n2)nn1Cc1ccccc1F [Compound I-16]

Compound: nitric oxide [inhaled NO]
pain scores [5]: significantly reduced

Compound: O=C(O)CCCCN(CCc1cc(F)ccc1OCc1ccc(-c2ccc(C(F)(F)F)cc2)cc1)Cc1ccc(C(=O)O)cc1 [BAY 60-2770]
overactive bladder (obese mice): ameliorates overactive bladder

Compound: N=C(N)NCCC[C@H](N)C(=O)O [L-arginine]
Gardos channel activity, dense cell formation and hemolysis (sickle mice): decrease

Compound: O=C(O)CCCCN(CCc1ccccc1OCc1ccc(CCc2ccccc2)cc1)Cc1ccc(C(=O)O)cc1 [BAY 58-2667]
pulmonary vasodilation and transpulmonary cGMP release after treatment with ODQ ([2]; inhaled microparticles after ODQ): greatly enhanced
pulmonary vasodilation [2]: dose dependent pulmonary vasodilation
transpulmonary cGMP release [2]: increased
effect on mean arterial pressure [2]: without significant effect
systemic arterial oxygenation [2]: increased

Compound: CC(C)[N+]1(C)[C@@H]2CC[C@H]1CC(OC(=O)C(CO)c1ccccc1)C2 (stereo partly drawn) [Ipratropium bromide]
IC50 [6]: 0.00086 µM
